Source: US10239933B2, “Compositions and methods for modulating thrombin generation” (The Children's Hospital of Philadelphia, priority 2011, dated 2019)
Like-named read-outs stand apart in the source and are kept apart here. Ends that are not written are not given here.

How the values were obtained:
FV-810 [1] = molecular target: T1, FV-810 (Homo sapiens, UniProt P12259, DEL839-1519); test: Fluorescence anisotropy, direct binding of OG488-BR to FV-810; conditions: fluorescently labeled FVBR
T1 construct: amino acids 1-28 are a signal peptide that is cleaved and numbering begins at residue 29; made in house
T1 sequence (P12259 with tags, fused parts or gaps DEL839-1519): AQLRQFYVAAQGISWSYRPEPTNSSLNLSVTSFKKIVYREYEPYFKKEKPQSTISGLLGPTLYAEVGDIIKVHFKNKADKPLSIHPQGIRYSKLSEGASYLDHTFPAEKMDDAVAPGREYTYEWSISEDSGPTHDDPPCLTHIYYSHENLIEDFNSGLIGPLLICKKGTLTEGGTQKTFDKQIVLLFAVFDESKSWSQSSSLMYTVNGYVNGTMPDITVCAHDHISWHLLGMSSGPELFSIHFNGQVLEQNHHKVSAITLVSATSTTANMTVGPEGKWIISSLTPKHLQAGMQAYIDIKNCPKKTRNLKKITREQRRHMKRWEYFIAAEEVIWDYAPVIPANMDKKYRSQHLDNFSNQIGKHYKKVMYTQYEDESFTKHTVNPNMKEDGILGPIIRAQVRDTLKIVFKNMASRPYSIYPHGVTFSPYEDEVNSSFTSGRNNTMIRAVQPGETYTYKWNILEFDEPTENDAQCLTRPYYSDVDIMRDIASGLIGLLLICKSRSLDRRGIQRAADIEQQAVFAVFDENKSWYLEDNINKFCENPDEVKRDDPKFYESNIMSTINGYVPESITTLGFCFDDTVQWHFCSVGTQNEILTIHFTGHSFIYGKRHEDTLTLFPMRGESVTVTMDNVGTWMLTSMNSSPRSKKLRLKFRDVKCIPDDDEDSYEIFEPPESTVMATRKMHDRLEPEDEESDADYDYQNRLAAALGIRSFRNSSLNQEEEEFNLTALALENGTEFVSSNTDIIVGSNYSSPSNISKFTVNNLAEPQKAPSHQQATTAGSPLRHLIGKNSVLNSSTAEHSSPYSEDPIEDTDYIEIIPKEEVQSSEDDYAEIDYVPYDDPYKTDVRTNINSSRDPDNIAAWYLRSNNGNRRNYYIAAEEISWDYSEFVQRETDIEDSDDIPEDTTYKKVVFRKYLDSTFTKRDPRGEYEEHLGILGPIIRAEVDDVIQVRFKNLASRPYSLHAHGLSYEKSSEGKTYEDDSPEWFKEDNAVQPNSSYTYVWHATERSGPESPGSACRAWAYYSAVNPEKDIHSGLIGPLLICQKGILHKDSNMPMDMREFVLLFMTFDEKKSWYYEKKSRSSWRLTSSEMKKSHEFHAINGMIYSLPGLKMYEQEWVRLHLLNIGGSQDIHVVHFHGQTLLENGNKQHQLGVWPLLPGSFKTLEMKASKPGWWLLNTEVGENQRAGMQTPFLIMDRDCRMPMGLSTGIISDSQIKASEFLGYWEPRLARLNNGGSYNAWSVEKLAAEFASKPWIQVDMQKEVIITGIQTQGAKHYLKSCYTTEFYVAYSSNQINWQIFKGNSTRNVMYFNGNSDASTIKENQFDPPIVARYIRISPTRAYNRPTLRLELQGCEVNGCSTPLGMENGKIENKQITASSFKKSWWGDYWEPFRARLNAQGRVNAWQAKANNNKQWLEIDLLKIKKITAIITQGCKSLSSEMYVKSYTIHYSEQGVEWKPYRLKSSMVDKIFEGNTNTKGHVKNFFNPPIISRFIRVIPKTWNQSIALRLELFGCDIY

normal human plasma = test: Clot time of normal human plasma; type: biochemical; conditions: increasing amounts of FVBR
FV-810 [2] = molecular target: T1, FV-810; test: Clotting assay, FV-deficient plasma supplemented with FV-810 (FV-DT); type: biochemical; conditions: for inhibition of clotting activity of FV-810 (FV-DT): FV-deficient plasma, FIG. 8A: 0.25 nM FV-810, peptides at 5 μM
Experimental: Residual clotting activity of Factor V variants was determined by prothrombin time-based clotting assays. Factor V variants were incubated with either the FVBR or s46 peptide, after which the mixtures were mixed with Factor V deficient plasma and clotting times were measured. Where indicated, the Factor V variants were activated by pre-incubation with thrombin prior to addition of the peptides.
FV derivatives (500 nM) were prepared in assay buffer. Where noted, FV derivatives were pretreated with 10 nM thrombin for 15 minutes at 37° C., followed by the addition of 15 nM hirudin. Samples were diluted to 0.25 nM in assay buffer with 0.1% BSA, and the specific clotting activity was measured in FV-deficient plasma (George King Bio-Medical, Overland Park, Kans.) with TriniCLOT PT Excel (Tcoag, Wicklow, Ireland) as described (Camire et al. (1998) Biochemistry 37:11896-11906). The data are presented as the means±S.D.

FXa/FVa = molecular target: T2, FXa/FVa (Homo sapiens, UniProt P12259); test: Prothrombin activation assay, FXa/FVa; type: biochemical
T2 construct: thrombin rapidly cleaves Factor V at Arg709 to produce heavy chain (HC); rapidly cleaves at Arg1018 and Arg1545 to produce light chain (LC); made in house
T2 sequence (P12259 29-737 limits assumed): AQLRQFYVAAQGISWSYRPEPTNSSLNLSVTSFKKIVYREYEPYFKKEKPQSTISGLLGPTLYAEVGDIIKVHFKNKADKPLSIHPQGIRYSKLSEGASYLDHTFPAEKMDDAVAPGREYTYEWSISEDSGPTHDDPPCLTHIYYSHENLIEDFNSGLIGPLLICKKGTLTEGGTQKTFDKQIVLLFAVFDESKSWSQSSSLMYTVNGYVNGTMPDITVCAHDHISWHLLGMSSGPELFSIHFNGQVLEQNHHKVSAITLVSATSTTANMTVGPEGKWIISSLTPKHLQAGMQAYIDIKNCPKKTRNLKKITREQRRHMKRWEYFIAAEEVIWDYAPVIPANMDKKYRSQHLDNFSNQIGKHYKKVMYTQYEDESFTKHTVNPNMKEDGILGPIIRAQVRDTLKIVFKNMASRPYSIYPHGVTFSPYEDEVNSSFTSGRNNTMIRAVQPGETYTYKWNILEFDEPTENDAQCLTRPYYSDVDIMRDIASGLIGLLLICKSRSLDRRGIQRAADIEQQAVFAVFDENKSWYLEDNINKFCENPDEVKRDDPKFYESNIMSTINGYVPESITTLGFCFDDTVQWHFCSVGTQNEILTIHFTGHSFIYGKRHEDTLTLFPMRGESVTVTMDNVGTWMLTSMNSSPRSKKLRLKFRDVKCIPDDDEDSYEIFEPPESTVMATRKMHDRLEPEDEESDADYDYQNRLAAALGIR
T2 sequence (P12259 1574-2224 limits assumed): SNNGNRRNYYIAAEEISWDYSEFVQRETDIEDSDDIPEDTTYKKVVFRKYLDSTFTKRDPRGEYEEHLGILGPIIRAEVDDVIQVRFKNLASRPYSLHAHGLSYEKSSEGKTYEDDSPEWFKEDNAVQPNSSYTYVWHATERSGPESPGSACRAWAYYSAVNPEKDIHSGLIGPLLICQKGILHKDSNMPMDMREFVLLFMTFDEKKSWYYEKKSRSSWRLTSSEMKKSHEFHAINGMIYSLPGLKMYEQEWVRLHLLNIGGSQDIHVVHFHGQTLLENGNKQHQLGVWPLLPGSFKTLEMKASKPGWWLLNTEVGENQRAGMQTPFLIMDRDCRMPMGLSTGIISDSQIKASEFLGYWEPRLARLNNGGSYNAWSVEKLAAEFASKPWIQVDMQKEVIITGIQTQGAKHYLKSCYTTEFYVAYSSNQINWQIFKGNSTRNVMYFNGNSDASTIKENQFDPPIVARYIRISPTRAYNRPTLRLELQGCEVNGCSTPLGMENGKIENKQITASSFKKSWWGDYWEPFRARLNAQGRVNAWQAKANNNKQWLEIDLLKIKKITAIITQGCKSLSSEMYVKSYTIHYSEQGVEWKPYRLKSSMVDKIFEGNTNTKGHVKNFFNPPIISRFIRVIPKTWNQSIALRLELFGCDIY
Experimental: Steady-state initial velocities of prothrombin cleavage were determined discontinuously at 25° C. by measuring the initial rate of thrombin formation. Reaction mixtures contained liposomes (75:25, PC:PS), prothrombin, the indicated Factor V variants, and the Factor V peptides FVBR or s46. The reactions were initiated by adding Factor Xa, and thrombin generation was determined at multiple time points by monitoring the cleavage of the chromogenic thrombin substrate S-2238.
Steady-state initial velocities of prothrombin cleavage were determined discontinuously at 25° C. as described (Camire, R. M. (2002) J. Biol. Chem., 277:37863-37870). Reaction mixtures containing PCPS (50 μM), DAPA (3 μM), prothrombin (1.4 μM), and either rFVa or the indicated FV-810 derivatives were incubated with B-domain peptides (0-10 μM) in assay buffer. […] Prothrombin activation was determined using the chromogenic thrombin substrate 52238 as described (Camire, R. M. (2002) J. Biol. Chem., 277:37863-37870).

FV-810 [3] = molecular target: T1, FV-810; test: Displacement of OG488-BR from preformed OG488-BR/FV-810 complex (fluorescence anisotropy); type: binding; conditions: 30 nM OG488-BR, 20 nM FV-810, 50 μM PCPS; for Kd: 25° C.
FV-810 [4] = molecular target: T1, FV-810; test: Prethrombin-2 activation, competition of BR and FXa for FV-810; type: biochemical; conditions: read-out: Kd for FV-810 from prethrombin-2 activation, model for tight binding

direct binding to FVDT (FV-810 [1]): direct binding | direct binding to FVDT (FV-810 [1]; listed as FV basic region peptide): binds FVDT | inhibition of clotting activity of FV-810 (FV-DT) (FV-810 [2]): inhibited | inhibition of clotting activity of FV-810 (FV-DT) (FV-810 [2]; listed as BR peptide): similarly inhibited | inhibition of FV-810 (FV-810 [2]; prior to thrombin cleavage): potently inhibited | effect on prothrombin activation by FXa/FVa (FXa/FVa): did not affect | effect on prothrombin activation by FXa/FVa (FXa/FVa; listed as BR peptide): no inhibitory effect | stoichiometry n, unlabeled BR (FV-810 [3]): 1.0±0.06 mol of BR/mol of FV-810 | Kd (FV-810 [3]; assuming stoichiometry of 1 mol of FV-810/mol of BR peptide): 2.2 ± 0.2 nM | Kd (FV-810 [3]; n fitted): 2.1 ± 0.2 nM | Kd (FV-810 [4]): 34.2 ± 3.6 nM
Sequence: SRAWGESTPLANKPGKQSGHPKFPRVRHKSLQVRQDGGKSRLKKSQFLIKTRKKKKEK [FVBR]
clot time of normal plasma (normal human plasma): prolongs the clot time
